Measurements published in patent US4913891A, “Positron emitter labeled enzyme inhibitors” (The United States of America as represented by the United …, priority 1987, dated 1990).
Read-outs that look alike come from different tables or passages of the source.

Experiments:
[1] = Integrated plasma activity for the 30-minute period after tracer injection; assay type: in vivo, human; conditions: 30-minute period after injection
Text: Integrated plasma activity
for the 30-minute time period after injection is also presented.

MAO A = target: T1, MAO A (Mus musculus, UniProt Q64133); conditions: for Effect of cross pretreatment on tracer distribution: mice pretreated with unlabeled L-deprenyl 10 mg/kg i.p. one hour before tracer
T1 sequence (Q64133 1-526): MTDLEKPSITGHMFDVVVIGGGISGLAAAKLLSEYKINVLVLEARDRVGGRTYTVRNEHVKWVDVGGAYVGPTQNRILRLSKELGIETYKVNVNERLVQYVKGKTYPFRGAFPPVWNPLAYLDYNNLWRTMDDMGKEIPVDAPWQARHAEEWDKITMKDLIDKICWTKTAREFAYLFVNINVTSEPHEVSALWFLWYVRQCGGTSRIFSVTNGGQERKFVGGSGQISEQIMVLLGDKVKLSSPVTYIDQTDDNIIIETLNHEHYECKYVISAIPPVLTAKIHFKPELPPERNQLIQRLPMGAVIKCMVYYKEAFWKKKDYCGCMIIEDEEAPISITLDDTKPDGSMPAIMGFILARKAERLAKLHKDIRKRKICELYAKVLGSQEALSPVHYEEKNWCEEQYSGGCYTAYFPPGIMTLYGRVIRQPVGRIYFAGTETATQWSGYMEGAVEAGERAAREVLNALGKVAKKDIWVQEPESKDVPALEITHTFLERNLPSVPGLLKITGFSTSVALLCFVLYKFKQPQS
Method: Organs were rapidly removed, blotted free of blood, placed in preweighed counting vials, and counted, along with injection standards, in a sodium iodide well counter.
For the determination of protein binding, freshly excised brains were minced in preweighed centrifuge tubes containing 2 ml 0.4% HClO4 […], weighed, counted, diluted with 1 ml HClO4 and 1 ml methanol, and homogenized by ultrasonication. After centrifugation and decantation, the pellets were resuspended in 3 ml methanol, sonicated, and recentrifuged. The combined supernatants and pellet were counted in a sodium iodide well counter. […] Because of the short half-life of C-11, corrections for the decay of the isotope were calculated to a standard time (end of cyclotron bombardment) for all data.
For pretreatment experiments, mice were given intraperitoneal injections of unlabeled clorgyline or L-deprenyl (10 mg/kg) one hour before the administration of the [^11 C]-tracer.

monoamine oxidase = test: PET in baboons, double injection with intervening high dose of unlabeled compound; assay type: in vivo; conditions: baboon pretreated with L-deprenyl, some brain regions
[2] = study 5, subject receiving phenelzine plus amphetamine

Compound	Integrated plasma activity ([1]; study 1, normal volunteer)	Integrated plasma activity ([1]; study 2, normal volunteer)	Integrated plasma activity ([1]; study 3, normal volunteer)	Integrated plasma activity ([1]; study 4, normal volunteer)	Integrated plasma activity [1, 2]	Effect of cross pretreatment on tracer distribution (MAO A)	Effect of cross pretreatment on tracer distribution (MAO A; listed as [^11 C]Clorgyline)	Brain uptake compared with the other tracer (MAO A; mouse brain, control and pretreated mice)	Reduction of brain radioactivity due to tracer after pretreatment (monoamine oxidase)
C#CCN([11CH3])CCCOc1ccc(Cl)cc1Cl [[^11 C]clorgyline]	2329 nCi ml min	3206 nCi ml min	3260 nCi ml min	3611 nCi ml min	3965 nCi ml min	did not significantly alter from control	no effect	slight but consistently higher uptake than L-deprenyl	
C#CCN([11CH3])[C@H](C)Cc1ccccc1 [[^11 C]-L-deprenyl]	1818 nCi ml min	2295 nCi ml min	1018 nCi ml min	1618 nCi ml min	2776 nCi ml min				≤ 80%
